{
  "source": "patent US11156599B2",
  "about": "“Assay for telomere length regulators” (The Johns Hopkins University, priority 2015, dated 2021)",
  "test_system": "human HCT116 cells",
  "assay": "Telomere length in continuously growing HCT116 cells",
  "format": "cell-based",
  "conditions": "KU55933",
  "data": [
    {"compound": "O=c1cc(-c2cccc3c2Sc2ccccc2S3)oc(N2CCOCC2)c1", "note": "[KU55933]", "values": [
      {"measurement": "telomere lengths with increasing cell PDs", "value": "shortened significantly"}
    ]}
  ]
}
